Laboratory results as given in ChEMBL document CHEMBL4613212, “Insights of synthetic analogues of anti-leprosy agents” (Bioorg Med Chem, 2019).

Key:
Format in all cases: functional
Mycobacterium leprae [1] = assay: Antimicrobial activity against Mycobacterium leprae assessed as microbial growth at 0.0469 ug/ml in presence of 0.0062 ug/ml KRM-1648 measured at 4 weeks (reference value: 147 +/- 19.1%)
Mycobacterium leprae [2] = assay: Antimicrobial activity against Mycobacterium leprae assessed as microbial growth at 0.0469 ug/ml in presence of 0.025 ug/ml rifabutin measured at 4 weeks (reference value: 147 +/- 19.1%)
Mycobacterium leprae [3] = assay: Antimicrobial activity against Mycobacterium leprae assessed as fractional inhibitory concentration index at 0.0938 ug/ml in presence of 0.2 ug/ml rifampin measured at 4 weeks
Mycobacterium leprae [4] = assay: Antimicrobial activity against Mycobacterium leprae assessed as microbial growth at 0.0938 ug/ml in presence of 0.2 ug/ml rifampin measured at 4 weeks (reference value: 147 +/- 19.1%)
Mycobacterium leprae [5] = assay: Antimicrobial activity against Mycobacterium leprae assessed as microbial growth at 0.0938 ug/ml in presence of 0.1 ug/ml rifampin measured at 4 weeks (reference value: 147 +/- 19.1%)
Mycobacterium leprae [6] = assay: Antimicrobial activity against Mycobacterium leprae assessed as fractional inhibitory concentration index at 0.0469 ug/ml in presence of 0.0062 ug/ml KRM-1648 measured at 4 weeks
Mycobacterium leprae [7] = assay: Antimicrobial activity against Mycobacterium leprae assessed as microbial growth at 0.0469 ug/ml in presence of 0.2 ug/ml rifampin measured at 4 weeks (reference value: 147 +/- 19.1%)
Mycobacterium leprae [8] = assay: Antimicrobial activity against Mycobacterium leprae assessed as microbial growth at 0.0469 ug/ml in presence of 0.0031 ug/ml KRM-1648 measured at 4 weeks (reference value: 147 +/- 19.1%)
Mycobacterium leprae [9] = assay: Antimicrobial activity against Mycobacterium leprae assessed as microbial growth at 0.0469 ug/ml in presence of 0.05 ug/ml rifabutin measured at 4 weeks (reference value: 147 +/- 19.1%)
Mycobacterium leprae [10] = assay: Antimicrobial activity against Mycobacterium leprae assessed as fractional inhibitory concentration index at 0.0469 ug/ml in presence of 0.05 ug/ml rifabutin measured at 4 weeks
Mycobacterium leprae [11] = assay: Antimicrobial activity against Mycobacterium leprae assessed as microbial growth at 0.375 ug/ml in presence of 0.2 ug/ml rifampin measured at 4 weeks (reference value: 147 +/- 19.1%)
Mycobacterium leprae [12] = assay: Antimicrobial activity against Mycobacterium leprae assessed as microbial growth at 0.375 ug/ml in presence of 0.1 ug/ml rifampin measured at 4 weeks (reference value: 147 +/- 19.1%)
Mycobacterium leprae [13] = assay: Antimicrobial activity against Mycobacterium leprae assessed as fractional inhibitory concentration index at 0.1875 ug/ml in presence of 0.05 ug/ml rifabutin measured at 4 weeks
Mycobacterium leprae [14] = assay: Antimicrobial activity against Mycobacterium leprae assessed as microbial growth at 0.1875 ug/ml in presence of 0.0125 ug/ml KRM-1648 measured at 4 weeks (reference value: 147 +/- 19.1%)
Mycobacterium leprae [15] = assay: Antimicrobial activity against Mycobacterium leprae assessed as microbial growth at 0.1875 ug/ml in presence of 0.025 ug/ml rifabutin measured at 4 weeks (reference value: 147 +/- 19.1%)
Mycobacterium leprae [16] = assay: Antimicrobial activity against Mycobacterium leprae assessed as fractional inhibitory concentration index at 0.1875 ug/ml in presence of 0.0125 ug/ml KRM-1648 measured at 4 weeks
Mycobacterium leprae [17] = assay: Antimicrobial activity against Mycobacterium leprae assessed as fractional inhibitory concentration index at 0.375 ug/ml in presence of 0.2 ug/ml rifampin measured at 4 weeks
Mycobacterium leprae [18] = assay: Antimicrobial activity against Mycobacterium leprae assessed as microbial growth at 0.1875 ug/ml in presence of 0.0062 ug/ml KRM-1648 measured at 4 weeks (reference value: 147 +/- 19.1%)
Mycobacterium leprae [19] = assay: Antimicrobial activity against Mycobacterium leprae assessed as microbial growth at 0.1875 ug/ml in presence of 0.05 ug/ml rifabutin measured at 4 weeks (reference value: 147 +/- 19.1%)

SMILES	Activity (Mycobacterium leprae [1]) [%]	Activity (Mycobacterium leprae [2]) [%]	fractional inhibitory concentration index (FICI) (Mycobacterium leprae [3])	Activity (Mycobacterium leprae [4]) [%]	Activity (Mycobacterium leprae [5]) [%]	fractional inhibitory concentration index (FICI) (Mycobacterium leprae [6])	Activity (Mycobacterium leprae [7]) [%]	Activity (Mycobacterium leprae [8]) [%]	Activity (Mycobacterium leprae [9]) [%]	fractional inhibitory concentration index (FICI) (Mycobacterium leprae [10])	Activity (Mycobacterium leprae [11]) [%]	Activity (Mycobacterium leprae [12]) [%]	fractional inhibitory concentration index (FICI) (Mycobacterium leprae [13])	Activity (Mycobacterium leprae [14]) [%]	Activity (Mycobacterium leprae [15]) [%]	fractional inhibitory concentration index (FICI) (Mycobacterium leprae [16])	fractional inhibitory concentration index (FICI) (Mycobacterium leprae [17])	Activity (Mycobacterium leprae [18]) [%]	Activity (Mycobacterium leprae [19]) [%]
N[C@@H]1CN(c2c(F)cc3c(=O)c(C(=O)O)cn([C@@H]4C[C@@H]4F)c3c2Cl)CC12CC2 [SITAFLOXACIN ANHYDROUS]	0	141	1	0	124	0.375	138	89	0	0.5									
C[C@H]1COc2c(N3CCN(C)CC3)c(F)cc3c(=O)c(C(=O)O)cn1c23.C[C@H]1COc2c(N3CCN(C)CC3)c(F)cc3c(=O)c(C(=O)O)cn1c23.O [LEVOFLOXACIN]											0	87	0.5	0	133	0.5	1	115	0
